Measurements as given in patent US12414996B2, “Organic anion transporting peptide-based cancer imaging and therapy” (Da Zen Theranostics, Inc., priority 2014, dated 2025).

Tests used:
PC3 = assay: Tumor cell growth inhibition IC50, PC3; assay type: cell-based; conditions: Prostate Cancer cell line PC3; read-out: Half maximal inhibitory concentration (IC50) PC3
Description: (§1) In addition to DZ-1-Gem, some agents of the invention may include other antitumor active moieties, such as cisplatin. For example, the tumor cell growth inhibition activities of DZ-1 linked with cisplatin (“DZ-1-cisplatin”) were compared with those of cisplatin alone in various tumor cells, including prostate, breast, renal, kidney, and lung cancer cell lines.

LNCaP [1] = assay: Tumor cell growth inhibition IC50, LNCaP; assay type: cell-based; conditions: Prostate Cancer cell line LNCaP; read-out: Half maximal inhibitory concentration (IC50) LNCaP
Description: as §1

C4-2B [2] = assay: Tumor cell growth inhibition IC50, C4-2B; assay type: cell-based; conditions: Prostate Cancer cell line C4-2B; read-out: Half maximal inhibitory concentration (IC50) C4-2B
Description: as §1

MCF-7 = assay: Tumor cell growth inhibition IC50, MCF-7; assay type: cell-based; conditions: Breast Cancer cell line MCF-7; read-out: Half maximal inhibitory concentration (IC50) MCF-7
Description: as §1

ACHN = assay: Tumor cell growth inhibition IC50, ACHN; assay type: cell-based; conditions: Renal Cancer cell line ACHN; read-out: Half maximal inhibitory concentration (IC50) ACHN
Description: as §1

Hep G2 = assay: Tumor cell growth inhibition IC50, Hep G2; assay type: cell-based; conditions: Hepatic Cancer cell line Hep G2; read-out: Half maximal inhibitory concentration (IC50) Hep G2
H358 = assay: Tumor cell growth inhibition IC50, H358; assay type: cell-based; conditions: Lung Cancer cell line H358; read-out: Half maximal inhibitory concentration (IC50) H358
Description: as §1

[3] = system: prostate cancer PC3 tumors; assay: Uptake by prostate cancer PC3 tumors in mice (NIR imaging); assay type: in vivo; conditions: for uptake by PC3 tumor in mice: 100 nmole i.p., imaged 48 hours thereafter
cancer = assay: In vivo cancer targeting of heptamethine cyanine dye derivatives (Nuclear/NIR imaging); conditions: tumor specific uptake by Nuclear/NIR imaging
Description: The inventor synthesized several heptamethine cyanine dye derivatives (Table 1) and evaluated the tumor specific uptake using Nuclear/NIR imaging.

LNCaP [4] = assay: Cytotoxicity (IC50) on cancer cell growth in vitro, LNCaP; assay type: cell-based, human; conditions: LNCaP prostate cancer cells in culture
C4-2B [5] = assay: Cytotoxicity (IC50) on cancer cell growth in vitro, C4-2B; assay type: cell-based, human; conditions: C4-2B prostate cancer cells in culture
PC-3 = assay: Cytotoxicity (IC50) on cancer cell growth in vitro, PC-3; assay type: cell-based, human; conditions: PC-3 prostate cancer cells in culture
prostate PDX tumors = assay: Uptake of NIR dye by prostate PDX tumors implanted in mouse subrenal capsules; assay type: in vivo; conditions: i.p., imaging after 48 hours, excitation 783 nm, emission 840 nm
Procedure: (A) Representative NIR fluorescence imaging of control mouse with no tumor and mouse with sham-operation and PCa implantation in the subrenal capsules of the kidneys. Mice were injected i.p with NIR dye, MHI-148, 48 hours before fluorescence imaging at excitation of 783 nm and emission of 840 nm. […] (B) Representative ex vivo NIR fluorescence imaging of kidneys with sham operation and PCa tumor implantations. NIR fluorescence signal was only detected in the growing PCa tumors implanted in the subrenal capsule of the right kidney. (C) Fluorescent microscopy of DAPI, NIR, and merged images of frozen sections of the human PCa tumor and the mouse kidney from the subrenal xenograft model (200× magnification) (D) Representative H&E staining of the PCa tumors implanted in the mouse kidney capsule (40× magnification; inlet: 400× magnification).
The uptakes of NIR dye MHI-148 by prostate PDX tumors implanted in mouse subrenal capsules were investigated. […] Mice were injected i.p with NIR dye, MHI-148. After 48 hours, fluorescence imaging was performed with an excitation of 783 nm and emission of 840 nm. […] NIR fluorescence signal was only detected in the growing prostate cancer tumors implanted in the subrenal capsule of the right kidney.

pancreatic PDX tumors = assay: Uptake of NIR dye by pancreatic PDX tumors implanted in mouse subrenal capsules; assay type: in vivo; conditions: subrenal capsule implant
Description: (A) NIR fluorescent imaging of mouse bearing human pancreatic PDX tumors in subrenal capsules (excitation: 783 nm; […] nm) (B) Ex vivo bright field and NIR fluorescent imaging of pancreatic PDX tumors in the kidney capsules and other organs harvested from mouse and (C) the NIR fluorescent intensity was quantified for the tumor and for each organ (total radiance efficiency [p/s]/[μW/cm^2]) (D) Fluorescent microscopy of DAPI, NIR, and merged images of frozen section of pancreatic PDX tumor in the kidney capsule. White dash line outlines the mouse kidney and red dash line outlines the pancreatic PDX tumor.
The uptakes of NIR dye MHI-148, by pancreatic patient-derived xenografts (PDX) tumors implanted in mouse subrenal capsules were investigated. […] White dash line outlines the mouse kidney and red dash line outlines the pancreatic PDX tumor.

C4-2 = assay: Cytotoxicity (IC50) on cancer cell growth in vitro, C4-2; assay type: cell-based, human; conditions: C4-2 prostate cancer cells in culture
MiaPaCa II = assay: Cytotoxicity (IC50) on cancer cell growth in vitro, MiaPaCa II; assay type: cell-based, human; conditions: MiaPaCa II pancreatic cancer cells in culture
BX-PC3 = assay: Cytotoxicity (IC50) on cancer cell growth in vitro, BX-PC3; assay type: cell-based, human; conditions: BX-PC3 pancreatic cancer cells in culture
CW22Rv1 cells = conditions: 5 μM, 10 min
Procedure: (§2) (A) Uptake of DZ-1-Gem (5 μM, 10 min) by U87 and CW22Rv1 cells. IR-783 was used a positive control in parallel. Scale bar represents 50 μm. (B) Proliferation of U87 cells treated with vehicle, gemcitabine (200 nM) or DZ-1-Gem (200 nM) for 4 consecutive days.
(§3) IR-783 was used a positive control in parallel. Scale bar represents 50 μm.

U87 cells [6] = conditions: 5 μM, 10 min
Procedure: as §2, §3

U87 cells [7] = conditions: 200 nM, 4 consecutive days
Procedure: as §2
(§4) In these experiments, cells were fixed and stained with crystal violet, and OD value at the wavelength of 595 nm was determined (n=5 for each experimental group, mean±SEM) *p<0.05, **p<0.01.

intracranial U87 tumor = conditions: 10 mg/kg, twice a week
Procedure: as §2, §4

[8] = system: CW22Rv1 prostate tumor brain metastases; assay: Survival of mice bearing CW22Rv1 prostate tumor brain metastases (Kaplan-Meier); assay type: in vivo; conditions: 10 mg/kg, twice a week; p<0.001 (log-rank test) vs vehicle
Description: as §3

pancreatic MIAPaCa cells = conditions: DZ-1-gemcitabine 10 mg/kg vs gemcitabine 2.5 mg/kg, twice a week i.p.
Description: (§5) Arrows indicate the onset of treatments. * p<0.05; ** p<0.01; *** p<0.001.
as §5

[9] = system: prostate cancer PC3 cells; conditions: DZ-1-gemcitabine 10 mg/kg vs gemcitabine 2.5 mg/kg, twice a week i.p.
Description: as §5, §5

MIAPaCa tumors = conditions: 10 mg/kg; subcutaneous luc-tagged MIAPaCa tumors; in vivo and ex vivo imaging

For “IR-783-N1-methylethylenediamine-cisplatin [DZ-1-cisplatin]”, the IC50 (PC3) was 7570 nM, the IC50 (LNCaP [1]) was 21600 nM and the IC50 (C4-2B [2]) was 15900 nM. For the same compound, the IC50 (MCF-7) was 13100 nM, the IC50 (ACHN) was 4030 nM and the IC50 (Hep G2) was > 50000 nM. The IC50 (H358) was 4950 nM and the “uptake by PC3 tumor in mice” value [3] was “accumulate only in the tumor cells, but not in the normal organs”.
For `CCC(=[N][Pt]([NH2])([NH2])[Cl])N(C)CCNC(=O)CCCCCN1/C(=C/C=C2\CCCC(/C=C/C3=[N+](CCCCS(=O)(=O)[O-])c4ccccc4C3(C)C)=C2Cl)C(C)(C)c2ccccc21`, the Cancer targeting (cancer) was “Positive”.
In the case of `CC1(C)C(/C=C/C2=C(NCCCC(=O)O)C(=C/C=C3/N(CCCCS(=O)(=O)O)c4ccccc4C3(C)C)/CCC2)=[N+](CCCCS(=O)(=O)[O-])c2ccccc21`, the Cancer targeting (cancer) is reported as “Negative”.
For `CC1(C)C(/C=C/C2=C(Cl)C(=C/C=C3/N(CCCCS(=O)(=O)O)c4ccccc4C3(C)C)/CCC2)=[N+](CCCCS(=O)(=O)[O-])c2ccccc21`, the Cancer targeting (cancer) was “Positive”.
Work on `C#CCN(C)CCCOc1ccc(Cl)cc1Cl` [Clorgyline] yielded an IC50 (LNCaP [4]) of 81000 nM, an IC50 (C4-2B [5]) of 114000 nM and an IC50 (PC-3) of 120000 nM.
With `CC1(C)C(/C=C/C2=C(Cl)C(=C/C=C3/N(CCCCCC(=O)NCCCCC(NC(=O)CN4CCN(CC(=O)O)CCN(CC(=O)O)CCN(CC(=O)O)CC4)C(=O)O)c4ccccc4C3(C)C)/CCC2)=[N+](CCCCS(=O)(=O)[O-])c2ccccc21` (stereo not drawn) the Cancer targeting (cancer) was “Positive”.
In the case of `CC1(C)C(/C=C/C2=C(Cl)C(=C/C=C3\N(CCCCCC(=O)O)c4ccccc4C3(C)C)/CCC2)=[N+](CCCCCC(=O)O)c2ccccc21` [MHI-148], the “NIR fluorescence signal (uptake) in prostate PDX tumor vs sham-operated kidney and control mouse” value (prostate PDX tumors) is reported as “Only the prostate cancer tumor implanted in the subrenal capsule of the right kidney showed the NIR fluorescence signal” and the “uptake of NIR dye in pancreatic PDX tumor vs mouse kidney (fluorescent microscopy of frozen section)” value (pancreatic PDX tumors) is reported as “Only the pancreatic tumor uptakes the NIR dye”.
In the case of `CC1(C)C(/C=C/C2=C(Cl)C(=C/C=C3/N(CCCCCC(=O)O)c4ccccc4C3(C)C)/CCC2)=[N+](CCCCCC(=O)O)c2ccccc21`, the Cancer targeting (cancer) is reported as “Positive”.
With `CC1(C)C(/C=C/C2=C(Cl)C(=C/C=C3/N(CCCCCC(=O)Nc4ccc(CC5CN(CC(=O)O)CCN(CC(=O)O)CCN5CC(=O)O)cc4)c4ccccc4C3(C)C)/CCC2)=[N+](CCCCS(=O)(=O)[O-])c2ccccc21` (stereo not drawn) the Cancer targeting (cancer) was “Positive”.
`CC(=O)O[C@@]12CO[C@@H]1C[C@H](O)[C@@]1(C)C(=O)[C@H](O)C3=C(C)[C@@H](OC(=O)[C@H](O)[C@@H](NC(=O)OC(C)(C)C)c4ccccc4)C[C@@](O)([C@@H](OC(=O)c4ccccc4)[C@H]21)C3(C)C` [Docetaxel] was tested, and the IC50 (LNCaP [4]; Homo sapiens) was 10 nM, the IC50 (C4-2; Homo sapiens) was 3200 nM and the IC50 (PC-3; Homo sapiens) was 330 nM. The IC50 (MiaPaCa II; Homo sapiens, MIA PaCa-2) was 6 nM and the IC50 (BX-PC3; Homo sapiens, BXPC-3) was 7 nM.
For `CC1(C)C(/C=C/C2=C(Cl)C(=C/C=C3/N(CCCCCC(=O)Nc4ccn(C5OC(CO)C(O)C5(F)F)c(=O)n4)c4ccccc4C3(C)C)/CCC2)=[N+](CCCCS(=O)(=O)[O-])c2ccccc21` (stereo not drawn), the Cancer targeting (cancer) was “Positive”.
For `CC1(C)C(/C=C/C2=C(Cl)C(=C/C=C3/N(CCCCCC(=O)O)c4ccccc4C3(C)C)/CCC2)=[N+](CCCCS(=O)(=O)[O-])c2ccccc21`, the Cancer targeting (cancer) was “Positive”.
With `CC1(C)C(/C=C/C2=C(SCCCC(=O)O)C(=C/C=C3/N(CCCCS(=O)(=O)O)c4ccccc4C3(C)C)/CCC2)=[N+](CCCCS(=O)(=O)[O-])c2ccccc21` the Cancer targeting (cancer) was “Negative”.
Compound IR-783-gemcitabine [DZ-1-gemcitabine] has an IC50 (LNCaP [4]) of 340 nM, an IC50 (C4-2) of 93 nM and an IC50 (PC-3) of 420 nM. For the same compound, the IC50 (MiaPaCa II) was 85 nM, the IC50 (BX-PC3) was 230 nM and the “uptake by PC3 tumor in mice” value [3] was “accumulate only in the tumor cells, but not in the normal organs”. The “uptake by PC3 tumors vs normal organs” value ([3]; 10 mg/kg, subcutaneous luc-tagged PC3 tumors, in vivo and ex vivo imaging) was “specifically by prostate and pancreatic tumors but not normal organs”, the “uptake by CW22Rv1 cells” value (CW22Rv1 cells) was “readily taken up” and the “uptake by U87 cells” value (U87 cells [6]) was “readily taken up”. For the same compound, the “inhibition of U87 cell proliferation” value (U87 cells [7]) was “as effective as Gem”, the “intracranial U87 tumor growth (bioluminescence)” value (intracranial U87 tumor) was “effectively suppressed tumor growth, resulting in no bioluminescence” and the survival of mice [8] was “significantly improved survival”. The “prevention and inhibition of subcutaneous MIAPaCa tumor growth (tumor volume)” value (pancreatic MIAPaCa cells) was “more effective than Gemcitabine”, the “prevention and inhibition of subcutaneous PC3 tumor growth (tumor volume)” value [9] was “more effective than Gemcitabine” and the “uptake by MIAPaCa tumors vs normal organs” value (MIAPaCa tumors) was “specifically by prostate and pancreatic tumors but not normal organs”.
In the case of `CC1(C)C(/C=C/C2=C(SCCC(=O)Nc3ccn(C4OC(CO)C(O)C4(F)F)c(=O)n3)C(=C/C=C3/N(CCCCS(=O)(=O)O)c4ccccc4C3(C)C)/CCC2)=[N+](CCCCS(=O)(=O)[O-])c2ccccc21` (stereo not drawn), the Cancer targeting (cancer) is reported as “Negative”.
`Nc1ccn([C@@H]2O[C@H](CO)[C@@H](O)C2(F)F)c(=O)n1` [Gemcitabine] showed an IC50 (LNCaP [4]; Homo sapiens) of 250 nM, an IC50 (C4-2; Homo sapiens) of 85 nM and an IC50 (PC-3; Homo sapiens) of 380 nM. For the same compound, the IC50 (MiaPaCa II; Homo sapiens, MIA PaCa-2) was 22 nM and the IC50 (BX-PC3; Homo sapiens, BXPC-3) was 135 nM.
`N.N.[Cl][Pt][Cl]` [Cisplatin, reference compound] was tested, and the IC50 (PC3) was > 50000 nM, the IC50 (LNCaP [1]) was > 50000 nM and the IC50 (C4-2B [2]) was > 50000 nM. The IC50 (ACHN) was 28700 nM, the IC50 (Hep G2) was > 50000 nM and the IC50 (H358) was > 50000 nM.
